Reference: PubChem BioAssay AID332 (DTP/NCI, 2004)
Several values for one entry are separate records, joined by “and”; a condition that tells them apart may be missing. Identical values can stand only once. Results filed as inconclusive are left out. Numbered stars: 1 amine (or outer) side, 2 acyl side, 3 side chain; on linkers, the order of the positions; unused ones are H or OH. Bridge positions count the residues as written; N and C are the ends. Square brackets hold non-standard residues; d marks the D form. Peptide text beside a SMILES is read from it. I, II: the chains in the order shown. Actinocin(9to1) = Cc1c2oc3c(C)ccc(C(=O)[*:1])c3nc-2c(C(=O)[*:2])c(N)c1=O; aThr = C[C@H](O)[C@H](N)C(=O)O; NMeV = CN[C@H](C(=O)O)C(C)C; Sar = CNCC(=O)O

Test system: mice, ADJ-PC-20 plasma cell tumor sc, T/C %
Test: NCI In Vivo Anticancer Drug Screen. Data for tumor model ADJ-PC-20 Plasma Cell (subcutaneous) in unknown mice
Conditions: endpoint: mean tumor weight, higher = larger tumour
Experimental: The antitumor activity of compounds was measured in mice bearing transplantable tumors. Survival or tumor size were measured and the results are expressed as the measurement made in the treated group (T) divided by the measurement made in the vehicle treated control group (C). The tumor model used in this assay is ADJ-PC-20 Plasma Cell (subcutaneous) in unknown mice

[1] = dose: 250.0 mg/kg/injection, schedule: Q01DX010 (ip), vehicle: saline
[2] = dose: 500.0 mg/kg/injection, schedule: Q01DX010 (ip), vehicle: saline
[3] = dose: 7.5 mg/kg/injection, schedule: Q01DX010 (ip), vehicle: carboxymethylcellulose (CMC)
[4] = dose: 0.25 mg/kg/injection, schedule: Q01DX010 (ip), vehicle: carboxymethylcellulose (CMC)
[5] = dose: 63.0 micrograms/kg/injection, schedule: Q01DX010 (ip), vehicle: saline
[6] = dose: 6.25 mg/kg/injection, schedule: Q01DX010 (ip), vehicle: carboxymethylcellulose (CMC)
[7] = dose: 25.0 mg/kg/injection, schedule: Q01DX010 (ip), vehicle: carboxymethylcellulose (CMC)

CC(=O)OCC1OC(n2ncc(=O)[nH]c2=O)C(OC(C)=O)C1OC(C)=O (stereo unspecified)
T/C (dose: 125.0 mg/kg/injection, schedule: Q01DX010 (ip), vehicle: other): 55 % of control | T/C (dose: 250.0 mg/kg/injection, schedule: Q01DX010 (ip), vehicle: other): 58 % of control | T/C (dose: 500.0 mg/kg/injection, schedule: Q01DX010 (ip), vehicle: other): 48 % of control

O=C(Nc1ccc(C2=NCCCN2)cc1)c1ccc(C(=O)Nc2ccc(C3=NCCCN3)cc2)cc1
T/C (dose: 0.05 mg/kg/injection, schedule: Q01DX010 (ip), vehicle: water): 90 % of control | T/C (dose: 0.1 mg/kg/injection, schedule: Q01DX010 (ip), vehicle: water): 83 % of control | T/C (dose: 0.2 mg/kg/injection, schedule: Q01DX010 (ip), vehicle: water): 109 % of control | T/C (dose: 0.4 mg/kg/injection, schedule: Q01DX010 (ip), vehicle: water): 91 % of control and 92 % of control | T/C (dose: 3.12 mg/kg/injection, schedule: Q01DX010 (ip), vehicle: saline): 65 % of control

CN(C)CC(=O)c1ccc(O)c(O)c1
T/C (dose: 62.5 mg/kg/injection, schedule: Q01DX010 (ip), vehicle: saline): 99 % of control | T/C [1]: 77 % of control | T/C [2]: 72 % of control and 86 % of control

C=CC(CN1CC1)OC(C)=O (stereo unspecified)
T/C (dose: 3.75 mg/kg/injection, schedule: Q01DX010 (ip), vehicle: carboxymethylcellulose (CMC)): 72 % of control | T/C [3]: 40 % of control

O=C(Nc1ccc(C2=NCCCN2)cc1)c1ccc(NC(=O)c2ccc(C3=NCCCN3)cc2)cc1
T/C (dose: 0.12 mg/kg/injection, schedule: Q01DX010 (ip), vehicle: carboxymethylcellulose (CMC)): 99 % of control | T/C [4]: 87 % of control | T/C (dose: 0.5 mg/kg/injection, schedule: Q01DX010 (ip), vehicle: carboxymethylcellulose (CMC)): 109 % of control | T/C (dose: 1.0 mg/kg/injection, schedule: Q01DX010 (ip), vehicle: carboxymethylcellulose (CMC)): 84 % of control | T/C (dose: 2.0 mg/kg/injection, schedule: Q01DX010 (ip), vehicle: carboxymethylcellulose (CMC)): 94 % of control | T/C (dose: 4.0 mg/kg/injection, schedule: Q01DX010 (ip), vehicle: carboxymethylcellulose (CMC)): 83 % of control | T/C (dose: 8.0 mg/kg/injection, schedule: Q01DX010 (ip), vehicle: carboxymethylcellulose (CMC)): 56 % of control

CC1CCOS(=O)O1 (stereo unspecified)
T/C (dose: 10.0 mg/kg/injection, schedule: Q01DX010 (ip), vehicle: carboxymethylcellulose (CMC)): 65 % of control | T/C (dose: 20.0 mg/kg/injection, schedule: Q01DX010 (ip), vehicle: carboxymethylcellulose (CMC)): 50 % of control | T/C (dose: 40.0 mg/kg/injection, schedule: Q01DX010 (ip), vehicle: carboxymethylcellulose (CMC)): 32 % of control

C1CN1c1nc(N2CC2)nc(N2CC2)n1
T/C (dose: 0.01 mg/kg/injection, schedule: Q01DX010 (ip), vehicle: saline): 38 % of control | T/C (dose: 1.9 micrograms/kg/injection, schedule: Q01DX010 (ip), vehicle: saline): 170 % of control | T/C (dose: 7.8 micrograms/kg/injection, schedule: Q01DX010 (ip), vehicle: saline): 100 % of control | T/C (dose: 8.0 micrograms/kg/injection, schedule: Q01DX010 (ip), vehicle: saline): 101 % of control | T/C (dose: 15.0 micrograms/kg/injection, schedule: Q01DX010 (ip), vehicle: saline): 99 % of control | T/C (dose: 31.0 micrograms/kg/injection, schedule: Q01DX010 (ip), vehicle: saline): 105 % of control | T/C (dose: 31.2 micrograms/kg/injection, schedule: Q01DX010 (ip), vehicle: saline): 37 % of control | T/C [5]: 66 % of control

CN(C)c1ccc(Nc2c3ccccc3nc3ccccc23)cc1
T/C [6]: 88 % of control | T/C [7]: 115 % of control | T/C (dose: 100.0 mg/kg/injection, schedule: Q01DX010 (ip), vehicle: carboxymethylcellulose (CMC)): 67 % of control

C[C@]12CC[C@H](OC3OC(CO)C(O)C(O)C3O)C[C@H]1CC[C@@H]1[C@@H]2CC[C@]2(C)[C@@H](C3=CCOC3=O)CC[C@]12O (stereo partly specified)
T/C [5]: 99 % of control | T/C (dose: 125.0 micrograms/kg/injection, schedule: Q01DX010 (ip), vehicle: saline): 93 % of control | T/C (dose: 250.0 micrograms/kg/injection, schedule: Q01DX010 (ip), vehicle: saline): 95 % of control

O[C@H](CN1CC1)[C@@H](O)CN1CC1
T/C [4]: 25 % of control | T/C (dose: 16.0 micrograms/kg/injection, schedule: Q01DX010 (ip), vehicle: carboxymethylcellulose (CMC)): 103 % of control | T/C (dose: 31.0 micrograms/kg/injection, schedule: Q01DX010 (ip), vehicle: carboxymethylcellulose (CMC)): 151 % of control | T/C (dose: 63.0 micrograms/kg/injection, schedule: Q01DX010 (ip), vehicle: carboxymethylcellulose (CMC)): 55 % of control | T/C (dose: 125.0 micrograms/kg/injection, schedule: Q01DX010 (ip), vehicle: carboxymethylcellulose (CMC)): 66 % of control

Cc1cc(N(CCCl)CCCl)ccc1N=Nc1ccccc1C(=O)O
T/C (dose: 0.95 mg/kg/injection, schedule: Q01DX010 (ip), vehicle: carboxymethylcellulose (CMC)): 60 % of control | T/C (dose: 1.9 mg/kg/injection, schedule: Q01DX010 (ip), vehicle: carboxymethylcellulose (CMC)): 56 % of control | T/C (dose: 3.8 mg/kg/injection, schedule: Q01DX010 (ip), vehicle: carboxymethylcellulose (CMC)): 38 % of control | T/C [3]: 25 % of control

CSc1ncnc2c1ncn2C1OC(CO)C(O)C1O (stereo unspecified)
T/C (dose: 3.1 mg/kg/injection, schedule: Q01DX010 (ip), vehicle: carboxymethylcellulose (CMC)): 84 % of control | T/C [6]: 98 % of control | T/C (dose: 12.5 mg/kg/injection, schedule: Q01DX010 (ip), vehicle: carboxymethylcellulose (CMC)): 104 % of control | T/C [7]: 14 % of control

C[C@H](N)C(=O)N[C@@H]1[C@H]2C(=C(O)C[C@@H](O)[C@@H]2O)C(=O)O[C@@H]1C
T/C [1]: 48 % of control | T/C [2]: 58 % of control

COC12C(COC(N)=O)C3=C(C(=O)C(C)=C(N)C3=O)N1CC1C2N1C (stereo unspecified)
T/C (dose: 0.63 mg/kg/injection, schedule: Q01DX010 (ip), vehicle: carboxymethylcellulose (CMC)): 81 % of control | T/C (dose: 1.25 mg/kg/injection, schedule: Q01DX010 (ip), vehicle: carboxymethylcellulose (CMC)): 43 % of control | T/C (dose: 2.5 mg/kg/injection, schedule: Q01DX010 (ip), vehicle: carboxymethylcellulose (CMC)): 13 % of control

C[C@]12CCC(=O)C[C@H]1CC[C@@H]1[C@@H]2CC[C@@]2(C)[C@H]1CC[C@]2(C)O
T/C (dose: 500.0 mg/kg/injection, schedule: Q01DX010 (sc), vehicle: steriod suspending solution): 105 % of control and 119 % of control | T/C (dose: 1000.0 mg/kg/injection, schedule: Q01DX010 (sc), vehicle: steriod suspending solution): 96 % of control

Cc1c2oc3c(C)ccc(C(=O)N[C@@H]4C(=O)N[C@H](C(C)C)C(=O)N5CCC[C@H]5C(=O)N(C)CC(=O)N(C)[C@@H](C(C)C)C(=O)O[C@H]4C)c3nc-2c(C(=O)N[C@@H]2C(=O)N[C@H](C(C)C)C(=O)N3CCC[C@H]3C(=O)N(C)CC(=O)N(C)[C@@H](C(C)C)C(=O)O[C@H]2C)c(N)c1=O (I: [aThr][dV]P[Sar][NMeV] / II: [aThr][dV]P[Sar][NMeV]; ester I:1-I:C, II:1-II:C; linker I:N-II:N via Actinocin(9to1))
T/C (dose: 4.7 micrograms/kg/injection, schedule: Q01DX010 (ip), vehicle: saline): 161 % of control | T/C (dose: 6.2 micrograms/kg/injection, schedule: Q01DX010 (ip), vehicle: saline): 193 % of control | T/C (dose: 9.4 micrograms/kg/injection, schedule: Q01DX010 (ip), vehicle: saline): 87 % of control | T/C (dose: 12.5 micrograms/kg/injection, schedule: Q01DX010 (ip), vehicle: saline): 93 % of control

COc1ccc(/C=N/NC(N)=S)cc1
T/C (dose: 75.0 mg/kg/injection, schedule: Q01DX010 (ip), vehicle: saline): 87 % of control | T/C (dose: 150.0 mg/kg/injection, schedule: Q01DX010 (ip), vehicle: saline): 99 % of control | T/C (dose: 300.0 mg/kg/injection, schedule: Q01DX010 (ip), vehicle: saline): 82 % of control | T/C (dose: 600.0 mg/kg/injection, schedule: Q01DX010 (ip), vehicle: saline): 85 % of control

COC1=C(N)C(=O)c2nc(-c3nc(C(=O)O)c(C)c(-c4ccc(OC)c(OC)c4O)c3N)ccc2C1=O
T/C (dose: 0.02 mg/kg/injection, schedule: Q01DX010 (ip), vehicle: other): 97 % of control | T/C (dose: 0.04 mg/kg/injection, schedule: Q01DX010 (ip), vehicle: other): 66 % of control | T/C (dose: 0.08 mg/kg/injection, schedule: Q01DX010 (ip), vehicle: other): 71 % of control | T/C (dose: 0.17 mg/kg/injection, schedule: Q01DX010 (ip), vehicle: other): 44 % of control | T/C (dose: 0.34 mg/kg/injection, schedule: Q01DX010 (ip), vehicle: other): 13 % of control

CN(N=O)C(=O)NC(C=O)C(O)C(O)C(O)CO (stereo unspecified)
T/C (dose: 50.0 mg/kg/injection, schedule: Q01DX010 (ip), vehicle: saline): 68 % of control
